# Measurements published in US8163775B2, “Allosteric modulators of metabotropic glutamate receptors” (Addex Pharma SA, priority 2003, dated 2012).
row,SMILES,melting point
1,"O=C(c1ccccc1)N1CCCC(c2nc(-c3ccc(F)cc3)no2)C1 (stereo not shown) [Example 5, {3-[3-(4-Fluoro-phenyl)-[1,2,4]oxadiazol-5-yl]-piperidin-1-yl}-phenyl-methanone]",82 to 83 °C
2,"O=C(c1ccc(F)cc1)N1CCCC(c2nc(-c3cccc(F)c3)no2)C1 (stereo not shown) [Example 10, (4-Fluoro-phenyl)-{3-[3-(3-fluoro-phenyl)-[1,2,4]oxadiazol-5-yl]-piperidin-1-yl}-methanone]",86 to 89 °C
3,"Cc1ccsc1C(=O)N1CCC[C@H](c2nc(-c3ccc(F)cc3)no2)C1 [Example 32, {(S)-3-[3-(4-Fluoro-phenyl)-1,2,4-oxadiazol-5-yl]-piperidin-1-yl}-(3-methyl-thiophen-2-yl)-methanone]",90 to 92 °C
4,"O=C(c1ccc(-c2ccccn2)s1)N1CCC[C@H](c2nc(-c3ccc(F)cc3)no2)C1 [Example 31, {(S)-3-[3-(4-Fluoro-phenyl)-1,2,4-oxadiazol-5-yl]-piperidin-1-yl}-(5-pyridin-2-yl-thiophen-2-yl)-methanone]",115 to 117 °C
5,"Cc1cc(C(=O)N2CCC[C@H](c3nc(-c4ccc(F)cc4)no3)C2)ccc1F [Example 30, (4-Fluoro-3-methyl-phenyl)-{(S)-3-[3-(4-fluoro-phenyl)-[1,2,4]oxadiazol-5-yl]-piperidin-1-yl}-methanone]",106 to 107 °C
6,"N#Cc1ccc(C(=O)N2CCC[C@H](c3nc(-c4ccc(F)cc4)no3)C2)cc1 [Example 23, 4-{(S)-3-[3-(4-Fluoro-phenyl)-[1,2,4]oxadiazol-5-yl]-piperidine-1-carbonyl}-benzonitrile]",129 to 130 °C
7,"O=C(c1ccc(F)cc1)N1CCCC(c2nnc(-c3ccc(F)cc3)[nH]2)C1 (stereo not shown) [Example 1, (4-Fluoro-phenyl)-{3-[5-(4-fluoro-phenyl)-4H-[1,2,4]triazol-3-yl]-piperidin-1-yl}-methanone]",95 °C
8,"O=C(c1nc2ccccc2s1)N1CCC[C@H](c2nc(-c3ccc(F)cc3)no2)C1 [Example 19, Benzothiazol-2-yl-{(S)-3-[3-(4-fluoro-phenyl)-[1,2,4]oxadiazol-5-yl]-piperidin-1-yl}-methanone]",130 to 131 °C
9,"O=C(c1cccc(F)c1)N1CCCC(c2nc(-c3ccc(F)cc3)no2)C1 (stereo not shown) [Example 6, (3-Fluoro-phenyl)-{3-[3-(4-fluoro-phenyl)-[1,2,4]oxadiazol-5-yl]-piperidin-1-yl}-methanone]",139 to 140 °C
10,"Cc1cc(C(=O)N2CCC[C@H](c3nc(-c4ccc(F)cc4)no3)C2)nn1C [Example 21, (1,5-Dimethyl-1H-pyrazol-3-yl)-{(S)-3-[3-(4-fluoro-phenyl)-[1,2,4]oxadiazol-5-yl]-piperidin-1-yl}-methanone]",108 to 109 °C
11,"O=C(c1ccno1)N1CCC[C@H](c2nc(-c3ccc(F)cc3)no2)C1 [Example 24, {(S)-3-[3-(4-Fluoro-phenyl)-[1,2,4]oxadiazol-5-yl]-piperidin-1-yl}-isoxazol-5-yl-methanone]",93 to 94 °C
12,"O=C(c1ccc(F)cc1)N1CCCC(c2nc(-c3ccccc3)no2)C1 (stereo not shown) [Example 7, (4-Fluoro-phenyl)-[3-(3-phenyl-[1,2,4]oxadiazol-5-yl)-piperidin-1-yl]-methanone]",78 to 79 °C
13,"O=C(c1csnn1)N1CCC[C@H](c2nc(-c3ccc(F)cc3)no2)C1 [Example 18, {(S)-3-[3-(4-Fluoro-phenyl)-[1,2,4]oxadiazol-5-yl]-piperidin-1-yl}-[1,2,3]thiadiazol-4-yl-methanone]",90 to 91 °C
14,"Cc1nc(-c2cnccn2)sc1C(=O)N1CCC[C@H](c2nc(-c3ccc(F)cc3)no2)C1 [Example 14, {(S)-3-[3-(4-Fluoro-phenyl)-[1,2,4]oxadiazol-5-yl]-piperidin-1-yl}-(4-methyl-2-pyrazin-2-yl-thiazol-5-yl)-methanone]",147 to 148 °C
15,"O=C(c1ccc(C(F)(F)F)cc1)N1CCC[C@H](c2nc(-c3ccc(F)cc3)no2)C1 [Example 22, {(S)-3-[3-(4-Fluoro-phenyl)-[1,2,4]oxadiazol-5-yl]-piperidin-1-yl}-(4-trifluoromethyl-phenyl)-methanone]",109 to 110 °C
16,"Cn1cccc1C(=O)N1CCC[C@H](c2nc(-c3ccc(F)cc3)no2)C1 [Example 33, {(S)-3-[3-(4-Fluoro-phenyl)-1,2,4-oxadiazol-5-yl]-piperidin-1-yl}-(1-methyl-1H-pyrrol-2-yl)-methanone]",84 to 85 °C
17,"O=C(c1ccc(F)c(Cl)c1)N1CCC[C@H](c2nc(-c3ccc(F)cc3)no2)C1 [Example 27, (3-Chloro-4-fluoro-phenyl)-{(S)-3-[3-(4-fluoro-phenyl)-[1,2,4]oxadiazol-5-yl]-piperidin-1-yl}-methanone]",123 to 124 °C
18,"O=C(c1cccs1)N1CCC[C@H](c2nc(-c3ccc(F)cc3)no2)C1 [Example 13, S-(thiophen-2-yl)-{3-[3-(4-fluoro-phenyl)-[1,2,4]oxadiazol-5-yl]-piperidin-1-yl}-methanone]",82 to 83 °C
19,"O=C(c1cc(F)c(F)c(F)c1)N1CCC[C@H](c2nc(-c3ccc(F)cc3)no2)C1 [Example 26, {(S)-3-[3-(4-Fluoro-phenyl)-[1,2,4]oxadiazol-5-yl]-piperidin-1-yl}-(3,4,5-trifluoro-phenyl)-methanone]",139 to 140 °C
20,"COc1ccc(-c2noc(C3CCCN(C(=O)c4ccccc4)C3)n2)cc1 (stereo not shown) [Example 3, {3-[3-(4-Methoxy-phenyl)-[1,2,4]oxadiazol-5-yl]-piperidin-1-yl}-phenyl-methanone]",121 °C

# The remaining lines, values ahead:
row,melting point,SMILES
1,63 to 64 °C,"O=C(c1ccc2ncsc2c1)N1CCC[C@H](c2nc(-c3ccc(F)cc3)no2)C1 [Example 36, Benzothiazol-6-yl-{(S)-3-[3-(4-fluoro-phenyl)-1,2,4-oxadiazol-5-yl]-piperidin-1-yl}-methanone]"
2,142 to 143 °C,"O=C(c1ccc(F)cc1)N1CCC[C@H](c2nc(-c3ccc4ccccc4c3)no2)C1 [Example 53, (4-Fluoro-phenyl)-[(S)-3-(3-naphthalen-2-yl-[1,2,4]oxadiazol-5-yl)-piperidin-1-yl]-methanone]"
3,191 to 192 °C,"O=C(c1ccc2[nH]ccc2c1)N1CCC[C@H](c2nc(-c3ccc(F)cc3)no2)C1 [Example 40, {(S)-3-[3-(4-Fluoro-phenyl)-1,2,4-oxadiazol-5-yl]-piperidin-1-yl}-(1H-indol-5-yl)-methanone]"
4,113 to 115 °C,"O=C(c1ccc(F)cc1)N1CCC[C@H](c2nc(-c3ccncc3)no2)C1 [Example 48, (4-Fluoro-phenyl)-[(S)-3-(3-pyridin-4-yl-[1,2,4]oxadiazol-5-yl)-piperidin-1-yl]-methanone]"
5,110 to 115 °C,"O=C(c1ccc2[nH]cnc2c1)N1CCC[C@H](c2nc(-c3ccc(F)cc3)no2)C1 [Example 45, {(S)-3-[3-(4-Fluoro-phenyl)-1,2,4-oxadiazol-5-yl]-piperidin-1-yl}-benzoimidazol-6-yl-methanone]"
6,116 to 118 °C,"O=C(c1ccc(F)cc1)N1CCC[C@H](c2nc(-c3ccccc3)no2)C1 [Example 69, (4-Fluoro-phenyl)-[(S)-3-(3-phenyl-[1,2,4]oxadiazol-5-yl)-piperidin-1-yl]-methanone]"
7,116 to 117 °C,"O=C(c1ccc(F)cc1)N1CCOC(c2nc(-c3ccc(F)cc3)no2)C1 (stereo not shown) [Example 60, (4-Fluoro-phenyl)-{2-[3-(4-fluoro-phenyl)-[1,2,4]oxadiazol-5-yl]-morpholin-4-yl}-methanone]"
8,138 to 140 °C,"O=C(c1ccc(F)c(F)c1)N1CCC[C@H](c2nc(-c3ccc([N+](=O)[O-])cc3)no2)C1 [Example 72, (3,4-Difluoro-phenyl)-{(S)-3-[3-(4-nitro-phenyl)-[1,2,4]oxadiazol-5-yl]-piperidin-1-yl}-methanone]"
9,122 to 124 °C,"Cc1ncsc1C(=O)N1CCC[C@H](c2nc(-c3ccc(F)cc3)no2)C1 [Example 38, {(S)-3-[3-(4-Fluoro-phenyl)-1,2,4-oxadiazol-5-yl]-piperidin-1-yl}-(4-methyl-thiazol-5-yl)-methanone]"
10,112 to 114 °C,"O=C(c1ccc(N2CCOCC2)nc1)N1CCC[C@H](c2nc(-c3ccc(F)cc3)no2)C1 [Example 39, {(S)-3-[3-(4-Fluoro-phenyl)-1,2,4-oxadiazol-5-yl]-piperidin-1-yl}-(6-morpholin-4-yl-pyridin-3-yl)-methanone]"
11,115 to 119 °C,O=C(c1ccc(F)c(F)c1)N1CCC[C@H](c2nc(-c3ccccc3F)no2)C1 [Example 59]
12,137 to 139 °C,"O=C(/C=C/c1ccc(F)cc1)N1CCC[C@H](c2nc(-c3ccc(F)cc3)no2)C1 [Example 64, (E)-3-(4-Fluoro-phenyl)-1-{(S)-3-[3-(4-fluoro-phenyl)-[1,2,4]oxadiazol-5-yl]-piperidin-1-yl}-propenone]"
13,162 to 164 °C,"O=C(c1ccc(F)cc1)N1CCC[C@H](c2nc(-c3ccc([N+](=O)[O-])cc3)no2)C1 [Example 71, (4-Fluoro-phenyl)-{(S)-3-[3-(4-nitro-phenyl)-[1,2,4]oxadiazol-5-yl]-piperidin-1-yl}-methanone]"
14,149 to 151 °C,"O=C(c1ccc(F)c(F)c1)N1CCC[C@H](c2nc(-c3ccccc3)no2)C1 [Example 70, (3,4-Difluoro-phenyl)-[(S)-3-(3-phenyl-[1,2,4]oxadiazol-5-yl)-piperidin-1-yl]-methanone]"
15,120 to 121 °C,"O=C(c1ccc(F)c(F)c1)N1CCC[C@H](c2nc(-c3ccc(F)cc3)no2)C1 [Example 35, (3,4-Difluoro-phenyl)-{(S)-3-[3-(4-fluoro-phenyl)-[1,2,4]oxadiazol-5-yl]-piperidin-1-yl}-methanone]"
16,94 to 95 °C,"O=C(c1nccs1)N1CCC[C@H](c2nc(-c3ccc(F)cc3)no2)C1 [Example 37, {(S)-3-[3-(4-Fluoro-phenyl)-1,2,4-oxadiazol-5-yl]-piperidin-1-yl}-thiazol-2-yl-methanone]"
17,83 to 84 °C,"O=C(CCc1ccc(F)cc1)N1CCC[C@H](c2nc(-c3ccc(F)cc3)no2)C1 [Example 42, 3-(4-Fluoro-phenyl)-1-{(S)-3-[3-(4-fluoro-phenyl)-1,2,4-oxadiazol-5-yl]-piperidin-1-yl}-propan-1-one]"
